Reference: patent publication US20260306640A1, “TECHNOLOGIES TARGETING CELL STATES” (Auron Therapeutics, Inc., priority 2023, published 2026)

Experiments:
[1] = target: KAT2A (Homo sapiens, UniProt Q92830); test: KAT2A degradation, Western Blot (Jess), NCI-H1048 cells; type: cell-based; design: degrader, Western blot (Jess); conditions: NCI-H1048 cells, KAT2A, 24 h, Western Blot, vs DMSO; read-out: KAT2A NCI-H1048 DC50
Method in brief: (§1)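 DC50 came from protein loss relative to DMSO, measured by Jess capillary immunoblot of RIPA lysates with chemiluminescence read-out. Before lysis, NCI-H1048 cells in 5% FBS HITES medium were exposed to compound for 24 h at 37° C.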

[2] = target: KAT2B (Homo sapiens, UniProt Q92831); test: KAT2B degradation, Western Blot (Jess), NCI-H1048 cells; type: cell-based; design: degrader, Western blot (Jess); conditions: NCI-H1048 cells, KAT2B, 24 h, Western Blot, vs DMSO; read-out: KAT2B NCI-H1048 DC50
Sequence of KAT2B (Q92831 whole entry): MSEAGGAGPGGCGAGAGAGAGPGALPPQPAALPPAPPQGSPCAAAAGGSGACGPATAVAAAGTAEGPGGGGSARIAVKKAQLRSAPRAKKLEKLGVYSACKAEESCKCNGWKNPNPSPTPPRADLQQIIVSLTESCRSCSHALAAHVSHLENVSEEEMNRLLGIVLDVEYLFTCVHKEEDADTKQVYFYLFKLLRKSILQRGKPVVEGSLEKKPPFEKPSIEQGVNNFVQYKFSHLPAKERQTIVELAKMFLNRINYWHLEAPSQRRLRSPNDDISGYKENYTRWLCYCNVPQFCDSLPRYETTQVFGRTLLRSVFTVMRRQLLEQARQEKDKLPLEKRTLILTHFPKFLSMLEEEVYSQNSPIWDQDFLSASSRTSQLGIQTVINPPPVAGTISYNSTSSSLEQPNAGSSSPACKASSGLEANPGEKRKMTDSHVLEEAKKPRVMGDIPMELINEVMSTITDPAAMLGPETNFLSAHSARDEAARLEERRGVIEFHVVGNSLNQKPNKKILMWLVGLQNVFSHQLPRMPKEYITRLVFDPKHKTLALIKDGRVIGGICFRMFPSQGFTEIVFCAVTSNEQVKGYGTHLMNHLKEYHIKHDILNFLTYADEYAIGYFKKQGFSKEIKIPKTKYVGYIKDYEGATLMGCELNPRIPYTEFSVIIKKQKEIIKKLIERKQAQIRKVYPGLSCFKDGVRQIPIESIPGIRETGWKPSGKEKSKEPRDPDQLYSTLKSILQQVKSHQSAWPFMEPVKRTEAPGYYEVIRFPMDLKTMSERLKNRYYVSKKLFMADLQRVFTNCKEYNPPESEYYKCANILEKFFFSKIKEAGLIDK
Method in brief: as §1

Sequence of KAT2A (Q92830 whole entry): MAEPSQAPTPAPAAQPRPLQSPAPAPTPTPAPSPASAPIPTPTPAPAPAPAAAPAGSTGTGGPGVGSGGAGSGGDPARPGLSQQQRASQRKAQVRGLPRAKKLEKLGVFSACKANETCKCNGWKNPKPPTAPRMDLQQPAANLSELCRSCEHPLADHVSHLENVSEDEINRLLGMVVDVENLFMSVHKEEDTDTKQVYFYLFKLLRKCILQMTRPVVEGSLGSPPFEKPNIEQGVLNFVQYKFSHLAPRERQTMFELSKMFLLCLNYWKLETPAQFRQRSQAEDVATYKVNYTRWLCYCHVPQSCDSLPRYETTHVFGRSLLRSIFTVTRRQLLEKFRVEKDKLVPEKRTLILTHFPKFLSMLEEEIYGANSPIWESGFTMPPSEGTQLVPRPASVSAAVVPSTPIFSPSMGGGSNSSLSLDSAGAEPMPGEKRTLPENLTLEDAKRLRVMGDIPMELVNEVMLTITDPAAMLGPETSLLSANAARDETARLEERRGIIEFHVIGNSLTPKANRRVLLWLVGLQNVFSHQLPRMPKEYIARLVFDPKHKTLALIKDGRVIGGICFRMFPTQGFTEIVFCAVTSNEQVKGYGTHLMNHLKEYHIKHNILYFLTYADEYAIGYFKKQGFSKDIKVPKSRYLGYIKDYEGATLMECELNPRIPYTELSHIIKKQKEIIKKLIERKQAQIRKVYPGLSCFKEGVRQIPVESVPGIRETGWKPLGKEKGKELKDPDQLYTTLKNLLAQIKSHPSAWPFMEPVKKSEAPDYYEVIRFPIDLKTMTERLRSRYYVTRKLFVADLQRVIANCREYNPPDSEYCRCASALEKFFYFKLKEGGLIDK

DC50 [1] | DC50 [2] | SMILES
< 1 nM | < 1 nM | CN1C[C@H](Nc2cnn(C)c(=O)c2Br)C[C@H](c2ccc(C(=O)N3CCC4(CC3)CCN(c3ccc5c(c3)C(=O)N(C3CCC(=O)NC3=O)C5=O)CC4)cc2)C1 (stereo partly drawn) [Compound 300]
< 1 nM | < 1 nM | CN1C[C@H](Nc2cnn(C)c(=O)c2Cl)C[C@H](c2ccc(C(=O)N3CCC4(CC3)CCN(c3ccc5c(c3)C(=O)N(C3CCC(=O)NC3=O)C5=O)CC4)cc2)C1 (stereo partly drawn) [Compound 301]
1 to 30 nM | 1 to 30 nM | CN1C[C@H](Nc2cnn(C)c(=O)c2Cl)C[C@H](c2ccc(C(=O)N3CCC4(CC3)CCN(c3cccc5c3C(=O)N(C3CCC(=O)NC3=O)C5=O)CC4)cc2)C1 (stereo partly drawn) [Compound 302]
< 1 nM | 1 to 30 nM | Cc1c(N[C@@H]2C[C@H](c3ccc(CN4CCN(c5ccc6c(c5)C(=O)N(C5CCC(=O)NC5=O)C6=O)CC4)cc3)CN(C)C2)cnn(C)c1=O (stereo partly drawn) [Compound 303]
< 1 nM | 1 to 30 nM | CN1C[C@H](Nc2cnn(C)c(=O)c2Br)C[C@H](c2ccc(CN3CCN(c4cc5c(cc4F)C(=O)N(C4CCC(=O)NC4=O)C5=O)CC3)cc2)C1 (stereo partly drawn) [Compound 304]
1 to 30 nM | > 30 nM | CN1C[C@H](Nc2cnn(C)c(=O)c2Cl)C[C@H](c2ccc(CN3CCN(c4cc5c(cc4F)C(=O)N(C4CCC(=O)NC4=O)C5=O)CC3)cc2)C1 (stereo partly drawn) [Compound 305]
1 to 30 nM | > 30 nM | Cc1c(N[C@@H]2C[C@H](c3ccc(CN4CCN(c5cc6c(cc5F)C(=O)N(C5CCC(=O)NC5=O)C6=O)CC4)cc3)CN(C)C2)cnn(C)c1=O (stereo partly drawn) [Compound 306]
< 1 nM | 1 to 30 nM | Cc1cc(N2CC(N3CCN(C(=O)c4ccc([C@H]5C[C@@H](Nc6cnn(C)c(=O)c6Br)CN(C)C5)cc4)CC3)C2)ccc1C1CCC(=O)NC1=O (stereo partly drawn) [Compound 307]
< 1 nM | 1 to 30 nM | Cc1cc(N2CC(N3CCN(C(=O)c4ccc([C@H]5C[C@@H](Nc6cnn(C)c(=O)c6Cl)CN(C)C5)cc4)CC3)C2)ccc1C1CCC(=O)NC1=O (stereo partly drawn) [Compound 308]
< 1 nM | > 30 nM | Cc1cc(N2CCC(N3CCN(C(=O)c4ccc([C@H]5C[C@@H](Nc6cnn(C)c(=O)c6Br)CN(C)C5)cc4)CC3)CC2)ccc1C1CCC(=O)NC1=O (stereo partly drawn) [Compound 309]
< 1 nM | > 30 nM | Cc1cc(N2CCC(N3CCN(C(=O)c4ccc([C@H]5C[C@@H](Nc6cnn(C)c(=O)c6Cl)CN(C)C5)cc4)CC3)CC2)ccc1C1CCC(=O)NC1=O (stereo partly drawn) [Compound 310]
1 to 30 nM | > 30 nM | Cc1cc(N2CCN(C3CN(C(=O)c4ccc([C@H]5C[C@@H](Nc6cnn(C)c(=O)c6Br)CN(C)C5)cc4)C3)CC2)ccc1C1CCC(=O)NC1=O (stereo partly drawn) [Compound 311]
< 1 nM | > 30 nM | Cc1cc(N2CCN(C3CCN(C(=O)c4ccc([C@H]5C[C@@H](Nc6cnn(C)c(=O)c6Br)CN(C)C5)cc4)CC3)CC2)ccc1C1CCC(=O)NC1=O (stereo partly drawn) [Compound 312]
< 1 nM | < 1 nM | CN1C[C@H](Nc2ccn(C)c(=O)c2Br)C[C@H](c2ccc(C(=O)N3CCC4(CCC(c5ccc(C6CCC(=O)NC6=O)cc5)CC4)CC3)cc2)C1 (stereo partly drawn) [Compound 313]
< 1 nM | 1 to 30 nM | CN1C[C@H](Nc2ccn(C)c(=O)c2Cl)C[C@H](c2ccc(C(=O)N3CCC4(CCC(c5ccc(C6CCC(=O)NC6=O)cc5)CC4)CC3)cc2)C1 (stereo partly drawn) [Compound 314]
< 1 nM | 1 to 30 nM | Cc1c(N[C@@H]2C[C@H](c3ccc(C(=O)N4CCC5(CCC(c6ccc(C7CCC(=O)NC7=O)cc6)CC5)CC4)cc3)CN(C)C2)ccn(C)c1=O (stereo partly drawn) [Compound 315]
< 1 nM | < 1 nM | Cc1c(N[C@@H]2C[C@H](c3ccc(C(=O)N4CCC5(CC4)CCN(c4ccc(C6CCC(=O)NC6=O)c(F)c4)CC5)cc3)CN(C)C2)cnn(C)c1=O (stereo partly drawn) [Compound 316]

DC50 [1] | DC50 [2] | SMILES
< 1 nM | < 1 nM | CN1C[C@H](Nc2cnn(C)c(=O)c2Cl)C[C@H](c2ccc(C(=O)N3CCC4(CC3)CCN(c3ccc(C5CCC(=O)NC5=O)c(F)c3)CC4)cc2)C1 (stereo partly drawn) [Compound 317]
< 1 nM | 1 to 30 nM | COc1cc(N2CCC3(CCN(C(=O)c4ccc([C@H]5C[C@@H](Nc6cnn(C)c(=O)c6Br)CN(C)C5)cc4)CC3)CC2)ccc1C1CCC(=O)NC1=O (stereo partly drawn) [Compound 318]
< 1 nM | 1 to 30 nM | COc1cc(C2CCC3(CC2)CCN(C(=O)c2ccc([C@H]4C[C@@H](Nc5cnn(C)c(=O)c5Cl)CN(C)C4)cc2)CC3)ccc1C1CCC(=O)NC1=O (stereo partly drawn) [Compound 319]
< 1 nM | 1 to 30 nM | COc1cc(C2CCC3(CC2)CCN(C(=O)c2ccc([C@H]4C[C@@H](Nc5cnn(C)c(=O)c5C)CN(C)C4)cc2)CC3)ccc1C1CCC(=O)NC1=O (stereo partly drawn) [Compound 320]
< 1 nM | < 1 nM | CN1C[C@H](Nc2cnn(C)c(=O)c2Br)C[C@H](c2ccc(C(=O)N3CCC4(CCC(c5ccc(C6CCC(=O)NC6=O)cn5)CC4)CC3)cc2)C1 (stereo partly drawn) [Compound 321]
< 1 nM | < 1 nM | CN1C[C@H](Nc2cnn(C)c(=O)c2Cl)C[C@H](c2ccc(C(=O)N3CCC4(CCC(c5ccc(C6CCC(=O)NC6=O)cn5)CC4)CC3)cc2)C1 (stereo partly drawn) [Compound 322]
< 1 nM | < 1 nM | CN1C[C@H](Nc2cnn(C)c(=O)c2Br)C[C@H](c2ccc(C(=O)N3CCC4(CCC(c5ccc(C6CCC(=O)NC6=O)cc5)CC4)CC3)cc2)C1 (stereo partly drawn) [Compound 323]
< 1 nM | < 1 nM | CN1C[C@H](Nc2cnn(C)c(=O)c2Cl)C[C@H](c2ccc(C(=O)N3CCC4(CCC(c5ccc(C6CCC(=O)NC6=O)cc5)CC4)CC3)cc2)C1 (stereo partly drawn) [Compound 324]
< 1 nM | < 1 nM | CN1C[C@H](Nc2cnn(C)c(=O)c2Br)C[C@H](c2ccc(C(=O)N3CCC4(CCC(c5ccc(C6CCC(=O)NC6=O)c(F)c5)CC4)CC3)cc2)C1 (stereo partly drawn) [Compound 325]
< 1 nM | < 1 nM | CN1C[C@H](Nc2cnn(C)c(=O)c2Br)C[C@H](c2ccc(C(=O)N3CCC4(CCC(c5ccc(C6CCC(=O)NC6=O)cc5)CC4)CC3)cc2)C1 (stereo partly drawn) [Compound 326]
< 1 nM | 1 to 30 nM | CN1C[C@H](Nc2cnn(C)c(=O)c2Cl)C[C@H](c2ccc(C(=O)N3CCC(Cc4ccc(N5CCC(=O)NC5=O)c(F)c4)CC3)cc2)C1 [Compound 327]
< 1 nM | < 1 nM | CN1C[C@H](Nc2cnn(C)c(=O)c2Br)C[C@H](c2ccc(C(=O)N3CCC(Cc4ccc(C5CCC(=O)NC5=O)c(F)c4)CC3)cc2)C1 (stereo partly drawn) [Compound 328]
< 1 nM | < 1 nM | CN1C[C@H](Nc2cnn(C)c(=O)c2Cl)C[C@H](c2ccc(C(=O)N3CCC4(CCC(c5ccc6c(C7CCC(=O)NC7=O)cncc6c5)CC4)CC3)cc2)C1 (stereo partly drawn) [Compound 329]
< 1 nM | > 30 nM | CN1C[C@H](Nc2cnn(C)c(=O)c2Br)C[C@H](c2ccc(C(=O)N3CCC(c4ccc5c(C6CCC(=O)NC6=O)cncc5c4)CC3)cc2)C1 (stereo partly drawn) [Compound 330]
< 1 nM | > 30 nM | CN1C[C@H](Nc2cnn(C)c(=O)c2Cl)C[C@H](c2ccc(C(=O)N3CCC(c4ccc5c(C6CCC(=O)NC6=O)cncc5c4)CC3)cc2)C1 (stereo partly drawn) [Compound 331]
< 1 nM | > 30 nM | CN1C[C@H](Nc2cnn(C)c(=O)c2Cl)C[C@H](c2ccc(C(=O)N3CCC(C#Cc4ccc(C5CCC(=O)NC5=O)cc4)CC3)cc2)C1 (stereo partly drawn) [Compound 332]
